Data published in patent publication US7041131B2, “Bioengineered vascular graft support prostheses” (Organogenesis, Inc., priority 1998, dated 2006).

Tests used:
control vein grafts = assay: Isometric tension studies on rings of control vein grafts; set-up: species or system New Zealand male white rabbits; settings: for Sensitivity, -log10(EC50) / EC50: day 28 control vein grafts without tube support, mean±s.e.m, n=5; for EC50: Oryctolagus cuniculus, 672 h, read-out: Sensitivity, -log10(EC50) (converted)
Protocol: (§1) Twenty-nine New Zealand male white rabbits underwent interposition bypass grafting of the right common carotid artery using the reversed ipsilateral jugular vein. In the experimental group (n=15), once the proximal anastomosis was performed, the vein was passed through a collagen tube having dimensions of 4 mm in diameter and 35 to 40 mm in length and the distal anastomosis was then completed. Leaks were repaired and the collagen tube was fashioned to completely cover the vein graft, including both anastomoses. Control animals (n=14) were treated identically but without tube support. One intraoperative death resulted from an unrecognized leak in the mid-segment of a vein graft in the experimental group. Otherwise, there were no other significant complications such as infection or bleeding in either group. […] Postoperatively, the flow rate and intraluminal pressure in vein grafts were measured on either day 3 or 28 (n=5 per group). Vein grafts were harvested on day 3 for assessment of tyrosine phosphorylation by Western blot analysis (n=4 per group), and on day 28 for morphometric measurement (n=5 per group), scanning and transmission electron microscopy (n=5 per group) and isometric tension studies (n=5 per group). On the day of harvest, animals were anesthetized and subsequently sacrificed with an intravenous overdose of barbiturates.
(§2) Vein grafts were sectioned into four 5 mm rings. In the tube supported group, the collagen tube was carefully dissected off and removed to allow unimpeded vessel contraction and relaxation. Each ring was immediately mounted between two stainless steel hooks in 5 ml organ baths containing oxygenated Krebs solution (122 mM NaCl, 4.7 mM KCl, 1 2 mM MgCl2, 2.5 mM CaCl2, 15.4 mM NaHCO3, 1.2 mM KH2PO4 and 5.5 mM glucose, maintained at 37° C. and oxygenated with 95% O2 and 5% CO2), as previously described with some modifications. In brief, following equilibration, the resting tension was adjusted in increments from 0.5 to 1.25 gms and the maximal response to a modified oxygenated Krebs solution containing 60 mM KCl, 66.7 mM NaCl, 1.2 mM MgCl2, 2.5 mM CaCl2, 15.4 mM NaHCO3, 1.2 mM KH2PO4 and 5.5 mM glucose was measured to establish a length-tension relationship. Cumulative dose response curves to the contractile agonists bradykinin (10^−9 to 10^−5 M), norepinephrine (10^−9 to 10^−4 M), and serotonin (10^−9 to 10^−4 M) were performed. Relaxation responses to acetylcholine (10^−8 to 10^−4 M), an endothelium dependent agonist, and nitroprusside (10^−8 to 10^−4 M), an endothelium independent agonist, were assessed on rings precontracted with norepinephrine, at the concentration which produced 80% of maximal contraction. All rings were allowed to re-equilibrate for a minimum of 30 minutes between each experimental run and the same sequence of agonist testing was maintained for all experiments. (All chemicals were obtained from Sigma Chemical Co. (St Louis, Mo.)).
(§3) The concentration for the half maximal response (EC50) was calculated by logistic analysis and the sensitivity is defined as -log10(EC50). In each vein graft, the sensitivity was determined for each vessel ring (4 rings per vein graft) and the mean was taken as the value for that vein graft. Values shown are the mean±s.e.m (n=5 per group). Statistical differences between the tube supported vein grafts and control vein grafts were compared using the unpaired Student's t-test.

[1] = tested on: tube supported vein grafts; assay: Isometric tension studies on rings of tube supported vein grafts; set-up: species or system New Zealand male white rabbits; settings: for EC50: Oryctolagus cuniculus, 672 h, read-out: Sensitivity, -log10(EC50) (converted)
Protocol: as §1, §2, §3

[2] = day 28 tube supported vein grafts, tube removed, mean±s.e.m, n=5

| Compound | Sensitivity, -log10(EC50) (control vein grafts) | EC50 [1, 2] | EC50 (control vein grafts) | also measured |
| --- | --- | --- | --- | --- |
| CC(=O)OCC[N+](C)(C)C [Acetylcholine, acetylcholine] | no response | 120000 nM |  | Maximal relaxation ([1]; tube supported vein graft rings precontracted with norepinephrine): 64 % of precontracted tension |
| [Cl-].[K+] [KCl] |  |  |  | Contractile force (control vein grafts; 60 mM KCl, control vein grafts): 280 ± 47 mg; Contractile force ([1]; 60 mM KCl, tube supported vein grafts): 300 ± 46 mg |
| NC[C@H](O)c1ccc(O)c(O)c1 [Norepinephrine, norepinephrine] |  | 1100 nM | 1070 nM |  |
| NCCc1c[nH]c2ccc(O)cc12 [Serotonin, serotonin] |  | 407 nM | 525 nM |  |
| nitroprusside | 6.73 ± 0.19 |  |  | Sensitivity, -log10(EC50) [1, 2]: 6.46 ± 0.12 |
